Experimental data from article PMC9460512, “A conserved sequence motif in the Escherichia coli soluble FAD-containing pyridine nucleotide transhydrogenase is important for reaction efficiency” (The Journal of Biological Chemistry, 2022).

What was measured:
[1] = molecular target: T1, SthA (UdhA), soluble pyridine nucleotide transhydrogenase (Escherichia coli, UniProt P27306); experiment: thioNADPH formation rate at […] nm; format: biochemical; details: activator; 1.0 mM NADH, 0.15 mM thioNADP+, 50 mM Tris pH 7.5, 30 °C
[2] = molecular target: T1, SthA (UdhA), soluble pyridine nucleotide transhydrogenase; experiment: absorbance spectrum of purified holoenzyme (A280/[…]); format: binding; details: bound prosthetic group copurified; 20 μM FAD in lysis buffer
[3] = molecular target: T1, SthA (UdhA), soluble pyridine nucleotide transhydrogenase; experiment: thioNADPH formation at […] nm, substrate-inhibition fit; format: biochemical; details: 50 mM Tris pH 7.5, 30 °C
[4] = molecular target: SthA (UdhA), soluble pyridine nucleotide transhydrogenase (Escherichia coli, UniProt P27306, T50C); experiment: stopped-flow flavin reduction at […] nm, kobs vs NADH; format: biochemical; details: apparent; reductive half-reaction, anaerobic, 25 °C, no NADP+; 50 mM Tris pH 7.5
Chain of SthA (UdhA), soluble pyridine nucleotide transhydrogenase (Escherichia coli, UniProt P27306, T50C) (P27306 2-466 T50C): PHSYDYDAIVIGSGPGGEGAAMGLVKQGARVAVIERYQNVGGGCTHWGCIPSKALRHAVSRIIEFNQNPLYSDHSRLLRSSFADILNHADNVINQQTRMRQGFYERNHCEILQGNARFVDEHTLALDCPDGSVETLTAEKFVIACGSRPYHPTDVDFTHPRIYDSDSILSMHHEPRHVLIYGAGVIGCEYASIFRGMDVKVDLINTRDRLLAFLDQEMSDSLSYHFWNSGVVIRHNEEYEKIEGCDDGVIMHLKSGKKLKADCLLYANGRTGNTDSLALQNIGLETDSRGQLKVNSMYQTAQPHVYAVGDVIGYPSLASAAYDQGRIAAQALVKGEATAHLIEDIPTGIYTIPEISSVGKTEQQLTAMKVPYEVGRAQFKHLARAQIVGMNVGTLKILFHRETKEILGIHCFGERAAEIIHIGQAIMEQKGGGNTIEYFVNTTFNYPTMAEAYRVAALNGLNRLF

[5] = molecular target: SthA (UdhA), soluble pyridine nucleotide transhydrogenase (Escherichia coli, UniProt P27306, C45A); experiment: as above; format: biochemical; details: apparent; reductive half-reaction, anaerobic, 25 °C, no NADP+; 50 mM Tris pH 7.5
Chain of SthA (UdhA), soluble pyridine nucleotide transhydrogenase (Escherichia coli, UniProt P27306, C45A) (P27306 2-466 C45A): as the sequence (P27306 2-466 T50C) above, with C44A, C49T counted along it

[6] = molecular target: T1, SthA (UdhA), soluble pyridine nucleotide transhydrogenase; experiment: as above; format: biochemical; details: apparent; reductive half-reaction, anaerobic, 25 °C, no NADP+; 50 mM Tris pH 7.5
purified protein [7] = substrate: NC(=O)C1=CN([C@@H]2O[C@H](COP(=O)(O)OP(=O)(O)OC[C@H]3O[C@@H](n4cnc5c(N)ncnc54)[C@H](OP(=O)(O)O)[C@@H]3O)[C@@H](O)[C@H]2O)C=CC1; experiment: purified protein; format: biochemical, Escherichia coli; details: oxidase (uncoupling) reaction, 0.2 mM O2, no NAD(P)+, 50 mM Tris pH 7.5, 30 °C
purified protein [8] = substrate: NC(=S)c1ccc[n+]([C@@H]2O[C@H](COP(=O)(O)OP(=O)(O)OC[C@H]3O[C@@H](n4cnc5c(N)ncnc54)[C@H](OP(=O)(O)O)[C@@H]3O)[C@@H](O)[C@H]2O)c1; experiment: purified protein; format: biochemical, Escherichia coli; details: transhydrogenase reaction, 10.0 mM NADH, 50 mM Tris pH 7.5, 30 °C
[9] = molecular target: the molecule itself; experiment: dynamic light scattering; purified SthA (>1 mg/ml) in a microcuvette, DynaPro Nanostar, 20 °C, three independent purification batches; oligomer size from the hydrodynamic radius

In the case of Nc1ncnc2c1ncn2[C@@H]1O[C@H](COP(=O)(O)OP(=O)(O)O)[C@@H](O)[C@H]1O [ADP], the “% activity at 5.0 mM” value [1] is reported as “ADP was the best reaction activator, followed by AMP and ATP, respectively”.

With Nc1ncnc2c1ncn2[C@@H]1O[C@H](COP(=O)(O)O)[C@@H](O)[C@H]1O [AMP] the “% activity at 5.0 mM” value [1] was “all three adenine nucleotides increased the rate of thioNADPH formation”.

With Nc1ncnc2c1ncn2[C@@H]1O[C@H](COP(=O)(O)OP(=O)(O)OP(=O)(O)O)[C@@H](O)[C@H]1O [ATP] the “% activity at 5.0 mM” value [1] was “all three adenine nucleotides increased the rate of thioNADPH formation”.

In the case of Cc1cc2nc3c(=O)[nH]c(=O)nc-3n(C[C@H](O)[C@H](O)[C@H](O)COP(=O)(O)OP(=O)(O)OC[C@H]3O[C@@H](n4cnc5c(N)ncnc54)[C@H](O)[C@@H]3O)c2cc1C [FAD], the “absorbance spectrum of purified holoenzyme (A280/450)” value [2] is reported as “absorbance spectrum of the purified protein indicated the presence of bound oxidized FAD”.

With NC(=O)C1=CN([C@@H]2O[C@H](COP(=O)(O)OP(=O)(O)OC[C@H]3O[C@@H](n4cnc5c(N)ncnc54)[C@H](O)[C@@H]3O)[C@@H](O)[C@H]2O)C=CC1 [NADH] the “KI” value ([3]; 0.5 mM thioNADP+) was 12100 ± 2000 µM, the Kd [4] was 227 ± 61 µM and the Kd [5] was 300 ± 100 µM. It also gave a Kd [6] of 88 ± 27 µM.

In the case of NC(=S)c1ccc[n+]([C@@H]2O[C@H](COP(=O)(O)OP(=O)(O)OC[C@H]3O[C@@H](n4cnc5c(N)ncnc54)[C@H](OP(=O)(O)O)[C@@H]3O)[C@@H](O)[C@H]2O)c1 [thioNADP+], the “KI” value ([3]; 10.0 mM NADH) is reported as 590 ± 260 µM.

B1: SthA (UdhA), soluble pyridine nucleotide transhydrogenase (Escherichia coli K-12) (protein)
chain: PHSYDYDAIVIGSGPGGEGAAMGLVKQGARVAVIERYQNVGGGCTHWGTIPSKALRHAVSRIIEFNQNPLYSDHSRLLRSSFADILNHADNVINQQTRMRQGFYERNHCEILQGNARFVDEHTLALDCPDGSVETLTAEKFVIACGSRPYHPTDVDFTHPRIYDSDSILSMHHEPRHVLIYGAGVIGCEYASIFRGMDVKVDLINTRDRLLAFLDQEMSDSLSYHFWNSGVVIRHNEEYEKIEGCDDGVIMHLKSGKKLKADCLLYANGRTGNTDSLALQNIGLETDSRGQLKVNSMYQTAQPHVYAVGDVIGYPSLASAAYDQGRIAAQALVKGEATAHLIEDIPTGIYTIPEISSVGKTEQQLTAMKVPYEVGRAQFKHLARAQIVGMNVGTLKILFHRETKEILGIHCFGERAAEIIHIGQAIMEQKGGGNTIEYFVNTTFNYPTMAEAYRVAALNGLNRLF
In the case of B1, the Km (purified protein [7]) is reported as 91.8 ± 30.5 µM, the kcat (purified protein [7]) is reported as 0.2 ± 0.03 s⁻¹ and the kcat/Km (purified protein [7]) is reported as 2200 M⁻¹ s⁻¹. The Km (purified protein [8]) was 120 ± 40 µM, the kcat (purified protein [8]) was 15.3 ± 3.1 s⁻¹ and the kcat/Km (purified protein [8]) was 128000 M⁻¹ s⁻¹.

B2: soluble pyridine nucleotide transhydrogenase SthA from Escherichia coli K-12 (enzyme, E. coli K-12, UniProt P27306 1-466, looked up)
chain: MPHSYDYDAIVIGSGPGGEGAAMGLVKQGARVAVIERYQNVGGGCTHWGTIPSKALRHAVSRIIEFNQNPLYSDHSRLLRSSFADILNHADNVINQQTRMRQGFYERNHCEILQGNARFVDEHTLALDCPDGSVETLTAEKFVIACGSRPYHPTDVDFTHPRIYDSDSILSMHHEPRHVLIYGAGVIGCEYASIFRGMDVKVDLINTRDRLLAFLDQEMSDSLSYHFWNSGVVIRHNEEYEKIEGCDDGVIMHLKSGKKLKADCLLYANGRTGNTDSLALQNIGLETDSRGQLKVNSMYQTAQPHVYAVGDVIGYPSLASAAYDQGRIAAQALVKGEATAHLIEDIPTGIYTIPEISSVGKTEQQLTAMKVPYEVGRAQFKHLARAQIVGMNVGTLKILFHRETKEILGIHCFGERAAEIIHIGQAIMEQKGGGNTIEYFVNTTFNYPTMAEAYRVAALNGLNRLF
notes: Soluble pyridine nucleotide transhydrogenase SthA (UdhA) of E. coli K-12; protomer with a calculated molar mass of around 54 kDa; No removal of the His tag is described; also called UdhA; soluble transhydrogenase
B2 was tested, and the “stoichiometry N” value [9] was 8.
